Test results: PMC4627731, “Leishmanicidal Effect of Synthetic trans-Resveratrol Analogs” (PLoS ONE, 2015)
Where “and” joins values, the source holds several entries; their conditions need not be identical. Identical values can stand only once. Like-named read-outs stand apart in the source and are kept apart here.

Columns and labels:
[1] = tested on: Leishmania amazonensis promastigotes; assay: Anti-promastigote activity (XTT); assay type: cell-based; conditions: read-out: IC50 Promastigotes
Description: L. amazonensis (WHOM/BR/75/Josefa) promastigotes were cultured at 26°C in Schneider insect medium (Sigma), 10% fetal calf serum (Gibco-BRL, MD, US.) and 20 μg/mL of gentamycin (Schering-Plough, Rio de Janeiro, Brazil).
The leishmanicidal properties of the analogs were evaluated by measuring promastigotes’ mitochondrial activity using the XTT method with 2,3-bis-[2-methoxy-4-nitro-5-sulphophenyl]-2H-tetrazolium-5-carboxanilida, Sigma) as described previously. […] Sodium azide (10 μM) was used as a control, and the reaction product was read at 450 nm.

[2] = tested on: Leishmania amazonensis promastigotes; assay: Annexin V binding assay; assay type: cell-based; conditions: 48 h; piceatannol 100 μM, miltefosine 30 μM
Description: Double staining for annexin V-fluorescein isothiocyanate (FITC) and PI was performed with the Annexin-V apoptosis detection kit (Molecular Probes). […] They were then washed twice in cold annexin V-buffer and centrifuged at 2760 x g for 10 min. Pellets were resuspended in 20 μL of annexin V FITC, and after 15 min of incubation in the dark, 480 μL of annexin V-buffer was added according to the manufacturer instructions. Annexin V-FITC labeling was recorded on a BD FACScalibur (Becton and Dickson) and analyzed using CellQuest software.

[3] = tested on: murine peritoneal macrophages; assay: Nitric oxide production by macrophages (Griess); assay type: cell-based, mouse
Description: Thioglycolate-stimulated peritoneal macrophages were obtained as described above (10^6 cells/well in 24-well plate) and were activated with 1 μg/ml LPS (Sigma-Aldrich) or left untreated. […] The nitrite concentrations in the culture supernatants were determined using the Griess method. The reaction was read at 540 nm, and the concentration of NO2 ^- determined using a standard curve of sodium nitrite. The results are expressed as micromolar concentrations of nitrite.

[4] = Nitric oxide-trapping capacity, cell-free SNAP system; conditions: 1 mM SNAP, 6 h, rutin 1 mM, pterostilbene 33.2 μM, piceatannol 45 μM, polydatin 29 μM, oxyresveratrol 30.5 μM
Description: A cell-free system with an NO donor was used to test the capacity of resveratrol analogs to trap NO. SNAP (s-nitroso n-acetyl DL-penicillamine, Sigma) liberates nitric oxide in solution, which is then transformed to nitrite in the medium. The addition of a NO scavenger to the SNAP solution results in nitrite decay in the supernatant. […] One milimolar rutin (Sigma), a known NO scavenger, was used as a positive control for this assay. After 6 h of incubation, the nitrite concentration was determined using the Griess method. The results are expressed as the μM concentration of nitrite calculated in comparison with the sodium nitrite standard curve.

[5] = tested on: Leishmania amazonensis promastigotes; assay: Cell cycle analysis (PI, flow cytometry); assay type: cell-based; conditions: 48 h; for Effect on the cell cycle of the parasite: at promastigote IC50; for % cells in different stages of the cell cycle: G0/G1 / % cells in different stages of the cell cycle: G2/M / % cells in different stages of the cell cycle: S / % cells in different stages of the cell cycle: Sub-G0 / % cells: Hyperploidies: pterostilbene 17.7 μM, piceatannol 65 μM, polydatin 95.4 μM, oxyresveratrol 65 μM, mean ± SEM
Description: The cells were washed with PBS and fixed in 70% (v/v) ice-cold methanol/PBS for at least 1 h at 4°C. The fixed cells were washed once with PBS and then incubated in PBS supplemented with 10 μg/mL propidium iodide (PI) and 20 μg/mL RNAse at 37°C, 45 min, as reported. For each sample, 10000 events were collected on a BD FACScalibur (Becton and Dickson) and analyzed using CellQuest software.

[6] = tested on: murine peritoneal macrophages; assay: Detection of reactive oxygen species (DHR 123); assay type: cell-based, mouse; conditions: compounds at amastigote IC50
Description: Mice peritoneal macrophages were adhered to 96-well opaque culture plates and then infected or not with L. amazonensis promastigotes. […] The cells were then stained with 50 μM dihydrorhodamine 123 (DHR 123, Life Technologies), and ROS was measured immediately using 500/526 nm excitation/emission wavelengths.

[7] = tested on: L. amazonensis intracellular amastigotes; assay: Anti-amastigote activity in infected macrophages; assay type: cell-based, Leishmania amazonensis; conditions: for IC50: L. amazonensis in murine peritoneal macrophages, 24 h treatment; for SI (selectivity index; therapeutic index): ratio of CC50 on murine peritoneal macrophages to IC50 on L. amazonensis intracellular amastigotes
Description: Mice peritoneal macrophages obtained after stimulation with thioglycolate for 3 days were harvested in RPMI 1640 medium (LGC Biotecnologia, São Paulo, Brazil), 20 μg/mL of gentamycin and were plated onto 13 mm^2 coverslips inside 24-well plates for adherence for 2 h at 37°C, 5% CO2. Non-adherent cells were removed, and the macrophages were incubated overnight in RPMI supplemented with 10% FCS, as described above. Adhered macrophages were infected with L. amazonensis promastigotes (stationary growth phase) at a 10:1 parasite/macrophage ratio and incubated for 1 h at 34°C, 5% CO2. Free parasites were washed out with 0.01 M phosphate buffered saline (PBS), and the cultures maintained for 24 h at 37°C, 5% CO2. Infected macrophage cultures were treated with different concentrations of the analogs for an additional 24 h at 37°C, 5% CO2. Monolayers were then washed with PBS at 37°C, fixed in methanol, and stained with Giemsa. The number of amastigotes and the percentage of infected macrophages were determined by counting at least 200 cells in duplicate cultures. Endocytic indices were obtained by multiplying the percentage of infected macrophages by the mean number of amastigotes per infected macrophage. The results were expressed as the percentage of surviving macrophages based on endocytic indices of treated and untreated macrophages as reported previously.
The selectivity index was calculated as the ratio of murine peritoneal macrophages CC50 by L. amazonensis intracellular amastigotes IC50.

[8] = Cytotoxicity for host macrophages (XTT); assay type: cell-based; conditions: mouse, murine peritoneal macrophages
Description: After 3 h of incubation, the reaction product was read at 450 nm. The results are expressed in percentage of viable cells compared to untreated control.

[9] = tested on: promastigotes of L. donovani; conditions: cited from earlier work
[10] = tested on: promastigotes of L. infantum; conditions: cited from earlier work
[11] = tested on: Leishmania amazonensis promastigotes; assay: Mitochondrial membrane potential (JC-1); assay type: cell-based; conditions: 65 μM, 48 h, JC-1 red/green ratio
Description: Change in ΔΨm was measured using the mitochondria staining kit (Sigma-Aldrich).

[12] = tested on: promastigotes of L. major; conditions: cited from earlier work
[13] = tested on: amastigotes of L. donovani in RAW macrophages; conditions: cited from earlier work
[14] = tested on: amastigote form of L. infantum; parameters: method as in PMID 23103597; conditions: cited from earlier work
[15] = tested on: promastigote form of L. infantum; parameters: method as in PMID 23103597; conditions: cited from earlier work
[16] = macrophages infected with L. amazonensis, 29 μM polydatin, 30.5 μM oxyresveratrol
[17] = L. amazonensis infected macrophages
[18] = infected and PMA-stimulated macrophages
[19] = uninfected macrophages stimulated with 1 μg/mL PMA
[20] = Leishmania amazonensis, Peritoneal macrophage
[21] = uninfected macrophages stimulated with LPS, 33.2 μM pterostilbene, 45 μM piceatannol
[22] = Leishmania amazonensis, 48 h, L. amazonensis promastigotes, 48 h treatment, XTT
[23] = uninfected macrophages not stimulated, 33.2 μM pterostilbene, 29 μM polydatin
[24] = L. amazonensis promastigotes, 48 h treatment, XTT

C[C@@H]1[C@H](O)[C@@H](C)/C=C/C=C/C=C/C=C/C=C/C=C/C=C/[C@H](O[C@@H]2O[C@H](C)[C@@H](O)[C@H](N)[C@@H]2O)C[C@@H]2O[C@](O)(C[C@@H](O)C[C@@H](O)[C@H](O)CC[C@@H](O)C[C@@H](O)CC(=O)O[C@H]1C)C[C@H](O)[C@H]2C(=O)O [Amphotericin B, reference compound]
IC50 ([1]; Leishmania amazonensis, 48 h): 0.1 µM

CCCCCCCCCCCCCCCCOP(=O)([O-])OCC[N+](C)(C)C [Miltefosine, reference compound]
Increase of annexin-V positive promastigotes in relation to untreated control [2]: 13.2 fold

Oc1cc(O)cc(/C=C/c2ccc(O)cc2O)c1 [Oxyresveratrol, trans-2,3′,4,5′-tetrahydroxystilbene]
Decrease of NO production [3, 16]: 2.0 fold | Decrease of NO levels (NO scavenging) [4]: did not reduce the levels of NO | Effect on the cell cycle of the parasite [5]: did not alter the cell cycle | % cells in different stages of the cell cycle: G0/G1 [5]: 34.380 ± 2.300% | % cells in different stages of the cell cycle: G2/M [5]: 21.073 ± 2.386% | % cells in different stages of the cell cycle: S [5]: 9.570 ± 0.444% | % cells in different stages of the cell cycle: Sub-G0 [5]: 10.413 ± 3.895% | % cells: Hyperploidies [5]: 24.862 ± 2.500% | Reduction of ROS levels [6, 17]: 4.6 fold | Reduction of ROS levels [6, 18]: 4.7 fold | Reduction of ROS levels [6, 19]: 4.8 fold | Reduction of ROS levels ([6]; uninfected macrophages): 3.6 fold | IC50 ([1]; Leishmania amazonensis, 48 h): 65 µM | IC50 [7, 20]: 30.5 µM | SI (selectivity index; therapeutic index) [7]: 4.2

Oc1cc(O)cc(/C=C/c2ccc(O)c(O)c2)c1 [Piceatannol, trans-3,4,3',5'-tetrahydroxystilbene]
CC50 at 24 h [8]: > 400 µM | Decrease of NO production [3, 21]: 5.0 fold | Increase of annexin-V positive promastigotes in relation to untreated control [2]: 2.5 fold | Decrease of NO levels (NO scavenging) [4]: did not reduce the levels of NO | IC50 [9]: 17.2 µM | IC50 promastigotes of L. donovani [9]: 4.2 µg/mL | Decrease of cells in G0-G1 phase ([5]; 65 μM): 1.7 fold | Increase of cells in Sub-G0 phase ([5]; 65 μM): 5 fold | % cells in different stages of the cell cycle: G0/G1 [5]: 21.890 ± 0.840 % | % cells in different stages of the cell cycle: G2/M [5]: 14.273 ± 0.966% | % cells in different stages of the cell cycle: S [5]: 8.167 ± 0.522% | % cells in different stages of the cell cycle: Sub-G0 [5]: 30.990 ± 1.544 % | % cells: Hyperploidies [5]: 24.947 ± 0.801% | Reduction of ROS levels [6, 17]: 5.8 fold | Reduction of ROS levels [6, 18]: 6.6 fold | Reduction of ROS levels [6, 19]: 4.3 fold | Reduction of ROS levels ([6]; uninfected macrophages): 3.4 fold | IC50 [1, 22]: 65 µM | IC50 [10]: 16 µM | IC50 promastigotes of L. infantum [10]: 3.9 µg/mL | Reduction in the mitochondrial membrane potential (ΔΨm) [11]: 2.8 fold | IC50 [7, 20]: 45 µM | SI (selectivity index; therapeutic index) [7]: >8.9 | IC50 [12]: 23.3 µM | IC50 promastigotes of L. major [12]: 5.7 µg/mL | IC50 [13]: 30.3 µM | IC50 amastigotes of L. donovani in RAW macrophages [13]: 7.4 µg/mL

OC[C@H]1O[C@@H](Oc2cc(O)cc(/C=C/c3ccc(O)cc3)c2)[C@H](O)[C@@H](O)[C@@H]1O [Polydatin, resveratrol-3-O-b-mono-D-glucoside]
Decrease of NO production [3, 16]: 6.1 fold | Decrease of NO production [3, 23]: 2.8 fold | Decrease of NO levels (NO scavenging) [4]: did not reduce the levels of NO | Effect on the cell cycle of the parasite [5]: did not alter the cell cycle | % cells in different stages of the cell cycle: G0/G1 [5]: 32.040 ± 2.699% | % cells in different stages of the cell cycle: G2/M [5]: 20.090 ± 2.661% | % cells in different stages of the cell cycle: S [5]: 8.698 ± 0.946% | % cells in different stages of the cell cycle: Sub-G0 [5]: 13.250 ± 4.747% | % cells: Hyperploidies [5]: 26.233 ± 1.273% | Reduction of ROS levels [6, 17]: 2.1 fold | Reduction of ROS levels [6, 18]: 2.2 fold | Reduction of ROS levels [6, 19]: 2.0 fold | Reduction of ROS levels ([6]; uninfected macrophages): 1.8 fold | IC50 [1, 24]: 95.5 µM | IC50 [1, 22]: 95 µM | IC50 [7, 20]: 29 µM | SI (selectivity index; therapeutic index) [7]: 5.2

C[C@@H]1O[C@@H](OC[C@H]2O[C@@H](Oc3c(-c4ccc(O)c(O)c4)oc4cc(O)cc(O)c4c3=O)[C@H](O)[C@@H](O)[C@@H]2O)[C@H](O)[C@H](O)[C@H]1O [rutin, reference compound]
Decrease of NO levels (NO scavenging) [4]: 72%

trans-3,5-dimethoxy-4-hydroxystilbene [Pterostilbene]
LD50 amastigote form of L. infantum [14]: 10.3 μg/mL and 40.2 μM | Decrease of NO production [3, 23]: 3.8 fold | Decrease of NO production [3, 21]: 5.3 fold | Decrease of NO levels (NO scavenging) [4]: 22% | Effect on the cell cycle of the parasite [5]: did not alter the cell cycle | % cells in different stages of the cell cycle: G0/G1 [5]: 42.380 ± 1.006% | % cells in different stages of the cell cycle: G2/M [5]: 24.713 ± 1.331% | % cells in different stages of the cell cycle: S [5]: 7.823 ± 0.915% | % cells in different stages of the cell cycle: Sub-G0 [5]: 4.423 ± 0.216% | % cells: Hyperploidies [5]: 20.873 ± 0.309% | Reduction of ROS levels [6, 17]: 1.6 fold | Reduction of ROS levels [6, 18]: 1.6 fold | Reduction of ROS levels [6, 19]: 2.0 fold | IC50 ([1]; L. amazonensis promastigotes, 48 h treatment, XTT, listed as pterostilbene): 18 µM | IC50 [1, 24]: 17.7 µM | IC50 [7]: 33.2 µM | LD50 promastigote form of L. infantum [15]: 7.6 μg/mL and 29.6 μM
